The record followed here is patent US20160305970A1, “CELL LINES AND METHODS FOR MAKING AND USING THEM” (Chromocell Corporation, priority 2008, published 2016).

The test system of experiment [1] is GABAA (α1β3γ2s, α2β3γ2s, α3β3γ2s and α5β3γ2s). In words: In-cell readout assay using halide-sensitive meYFP, GABAA-meYFP-CHO cells. It counts as cell-based, human. As to conditions: increasing concentrations of GABA ligand. As for the experimental part:
The response of GABAA (subunit combinations of α1β3γ2s (A1), α2β3γ2s (A2), α3β3γ2s (A3) and α5β3γ2s (A5)) expressing CHO cells of the invention to test compounds was evaluated using the following protocol for an in-cell readout assay.
Cells were plated 24 hours prior to assay at 10-25,000 cells per well in 384 well plates in growth media (Ham's F-12 media plus FBS and glutamine). […] The assay plates were then loaded on the FDSS (Hamamatsu Corporation). […] The plates were read for 90 seconds.

The target in another experiment is T1, GABAA α5β3γ2s (α5) (Homo sapiens, UniProt P18507+P28472+P31644).
T1 construct: expressed in transfected cells
T1 sequence (P31644 32-462): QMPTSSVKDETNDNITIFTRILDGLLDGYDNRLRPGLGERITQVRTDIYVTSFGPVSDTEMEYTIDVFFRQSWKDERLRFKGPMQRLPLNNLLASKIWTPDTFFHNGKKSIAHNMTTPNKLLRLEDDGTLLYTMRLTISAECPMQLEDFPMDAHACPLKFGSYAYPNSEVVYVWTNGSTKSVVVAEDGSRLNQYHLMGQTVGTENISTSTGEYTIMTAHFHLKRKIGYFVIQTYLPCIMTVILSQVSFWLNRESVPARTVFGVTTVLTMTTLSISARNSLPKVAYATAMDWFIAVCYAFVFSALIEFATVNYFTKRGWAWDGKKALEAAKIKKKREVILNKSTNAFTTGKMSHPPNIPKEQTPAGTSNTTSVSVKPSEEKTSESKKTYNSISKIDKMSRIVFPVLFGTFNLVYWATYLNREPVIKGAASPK
T1 sequence (P28472 26-473): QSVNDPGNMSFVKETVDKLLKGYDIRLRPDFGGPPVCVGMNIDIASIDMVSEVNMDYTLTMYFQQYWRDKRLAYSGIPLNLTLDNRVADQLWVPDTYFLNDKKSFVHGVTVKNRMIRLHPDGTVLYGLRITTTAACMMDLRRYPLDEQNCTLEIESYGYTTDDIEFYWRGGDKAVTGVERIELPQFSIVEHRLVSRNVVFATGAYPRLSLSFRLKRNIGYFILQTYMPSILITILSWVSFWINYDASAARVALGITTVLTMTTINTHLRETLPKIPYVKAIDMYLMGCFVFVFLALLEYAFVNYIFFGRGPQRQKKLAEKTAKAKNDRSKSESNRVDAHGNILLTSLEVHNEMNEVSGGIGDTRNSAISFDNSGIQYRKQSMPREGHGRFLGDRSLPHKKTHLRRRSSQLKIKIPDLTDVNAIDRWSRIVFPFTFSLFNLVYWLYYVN
T1 sequence (P18507 40-467 isoform P18507-1 limits assumed): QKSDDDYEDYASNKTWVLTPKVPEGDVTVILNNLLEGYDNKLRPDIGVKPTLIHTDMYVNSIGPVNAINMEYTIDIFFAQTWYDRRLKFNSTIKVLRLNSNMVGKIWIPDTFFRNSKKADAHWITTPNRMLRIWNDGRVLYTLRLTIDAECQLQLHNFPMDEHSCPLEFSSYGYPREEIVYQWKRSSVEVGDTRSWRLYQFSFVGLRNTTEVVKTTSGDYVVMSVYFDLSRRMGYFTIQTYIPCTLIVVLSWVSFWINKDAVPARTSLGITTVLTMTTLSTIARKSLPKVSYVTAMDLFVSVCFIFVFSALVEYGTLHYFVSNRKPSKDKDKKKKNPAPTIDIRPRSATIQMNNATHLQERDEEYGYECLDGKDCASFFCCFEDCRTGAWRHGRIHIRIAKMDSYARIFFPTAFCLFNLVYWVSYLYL
It is filed as cell-based. Conditions: CHO cell line α5β3γ2s, membrane potential assay. The protocol:
Cells were plated 24 hours prior to assay at 10-25,000 cells per well in 384 well plates in growth media (Ham's F-12 media plus FBS and glutamine). […] Incubation was for 1 hour, followed by plate loading onto the high throughput fluorescent plate reader (Hamamastu FDSS). […] The plates were read for 90 seconds.

A further experiment concerns human CFTR. In words: Fluorescence membrane potential assay, stable CFTR-expressing CHO cell line. It is filed as cell-based. Conditions: stable CFTR-expressing cell line, 15,000 cells/well, 384-well plate. The protocol: Populations of cells were tested using functional criteria. Membrane potential dye kits (Molecular Devices, MDS) were used according to manufacturer's instructions. Cells were tested at varying densities in 384-well plates (i.e., 12.5×10^3 to 20×10^3 cells/per well) and responses were analyzed. Time between cell plating and assay read was tested. Dye concentration was also tested. Dose response curves and Z' scores were both calculated as part of the assessment of potential functionality. CHO cell lines stably expressing CFTR were maintained under standard cell culture conditions in Ham's F12 medium supplemented with 10% fetal bovine serum and glutamine. On the day before assay, the cells were harvested from stock plates and plated into black clear-bottom 384 well assay plates. The assay plates were maintained in a 37° C. cell culture incubator under 5% CO2 for 22-24 hours. […] For forskolin dose-response experiments, cells of the produced stable CFTR-expressing cell lines, plated at a density of 15,000 cells/well in a 384-well plate were challenged with increasing concentration of forskolin, a known CFTR agonist. The cellular response as a function of changes in cell fluorescence was monitored over time by a fluorescent plate reader (Hamamatsu FDSS). […]-1742 (2001)), indicating the potency of the clone.

Experiment [2] has as its target human GC-C (guanylate cyclase 2C, GUCY2C) (human) (UniProt P25092). In words: cell-based or functional assay.

pEC50: −log10 of the molar value.

Sequence of human GC-C (guanylate cyclase 2C, GUCY2C) (human) (P25092 24-1073): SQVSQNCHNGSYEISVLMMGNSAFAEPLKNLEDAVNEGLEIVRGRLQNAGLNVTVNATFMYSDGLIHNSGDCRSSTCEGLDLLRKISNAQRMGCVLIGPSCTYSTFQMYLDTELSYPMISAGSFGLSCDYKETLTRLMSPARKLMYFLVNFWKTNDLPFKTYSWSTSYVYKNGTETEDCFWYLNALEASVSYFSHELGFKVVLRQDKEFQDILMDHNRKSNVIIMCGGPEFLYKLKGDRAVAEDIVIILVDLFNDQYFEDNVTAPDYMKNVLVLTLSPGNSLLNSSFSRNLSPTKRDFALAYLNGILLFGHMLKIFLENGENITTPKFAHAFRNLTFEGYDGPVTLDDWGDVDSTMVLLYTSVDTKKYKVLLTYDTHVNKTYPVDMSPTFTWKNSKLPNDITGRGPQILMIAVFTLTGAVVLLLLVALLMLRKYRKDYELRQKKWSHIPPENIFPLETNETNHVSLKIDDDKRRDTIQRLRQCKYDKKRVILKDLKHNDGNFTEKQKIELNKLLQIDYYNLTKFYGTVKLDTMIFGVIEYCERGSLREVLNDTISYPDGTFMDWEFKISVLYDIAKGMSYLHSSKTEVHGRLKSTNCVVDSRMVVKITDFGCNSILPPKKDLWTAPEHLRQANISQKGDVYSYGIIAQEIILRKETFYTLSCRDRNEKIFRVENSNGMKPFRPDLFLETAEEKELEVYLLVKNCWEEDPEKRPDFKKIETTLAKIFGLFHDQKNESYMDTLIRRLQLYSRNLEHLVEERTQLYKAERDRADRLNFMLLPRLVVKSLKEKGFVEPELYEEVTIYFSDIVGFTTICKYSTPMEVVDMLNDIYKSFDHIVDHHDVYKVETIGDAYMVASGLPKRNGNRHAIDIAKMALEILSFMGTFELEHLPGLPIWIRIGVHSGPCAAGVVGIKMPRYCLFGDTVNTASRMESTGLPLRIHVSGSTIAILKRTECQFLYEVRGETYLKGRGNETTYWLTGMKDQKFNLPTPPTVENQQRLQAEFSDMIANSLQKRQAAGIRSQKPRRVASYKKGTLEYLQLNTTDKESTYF

As for `NCCCC(=O)O` [GABA], the meYFP signal response result in experiment [1] is “increasing quench of meYFP signal”. `COc1cc(/C=C(\C#N)C(=O)c2ccc(O)c(O)c2)cc(I)c1O` [I-OMe Tyrphostin 538]: the “EC50 Values α5” value at GABAA α5β3γ2s (α5) is given as “α5 Not active”. On to `C=C[C@@]1(C)CC(=O)[C@]2(O)[C@@]3(C)[C@@H](O)CCC(C)(C)[C@@H]3[C@H](O)[C@H](OC(C)=O)[C@@]2(C)O1` [forskolin], for which the pEC50 (usually the EC50 on a negative log10 scale, so that one unit is a factor of ten) in the experiment on human CFTR was 6.59. Turning to guanylin (peptide), in experiment [2], the EC50 of the cellular response (absorbance as a function of changes in cGMP levels, Direct Cyclic GMP Enzyme Immunoassay Kit) to increasing guanylin amounted to 1.1 nM and the level of cGMP was found to be 6 pmol/mL.
